Data: US8003682B2, “Indole compounds, a process for their preparation and pharmaceutical compositions containing them” (Les Laboratories Servier, priority 2006, dated 2011)

Columns and labels:
[1] = biological target: MT1 receptor (Homo sapiens, UniProt P48039); experiment: Melatonin MT1 receptor binding study (2-[125I]-iodomelatonin competition); conditions: 2-[125I]-iodomelatonin radioligand, triplicate
Procedure: (§1) The MT1 or MT2 receptor binding experiments are carried out using 2-[^125I]-iodomelatonin as reference radioligand. The radioactivity retained is determined using a liquid scintillation counter.
(§2) Competitive binding experiments are then carried out in triplicate using the various test compounds. A range of different concentrations is tested for each compound. The results enable the binding affinities (Ki) of the compounds tested to be determined.

[2] = biological target: T1, MT2 receptor (Homo sapiens, UniProt P49286); experiment: Melatonin MT2 receptor binding study (2-[125I]-iodomelatonin competition); conditions: 2-[125I]-iodomelatonin radioligand, triplicate
T1 sequence (P49286 1-362): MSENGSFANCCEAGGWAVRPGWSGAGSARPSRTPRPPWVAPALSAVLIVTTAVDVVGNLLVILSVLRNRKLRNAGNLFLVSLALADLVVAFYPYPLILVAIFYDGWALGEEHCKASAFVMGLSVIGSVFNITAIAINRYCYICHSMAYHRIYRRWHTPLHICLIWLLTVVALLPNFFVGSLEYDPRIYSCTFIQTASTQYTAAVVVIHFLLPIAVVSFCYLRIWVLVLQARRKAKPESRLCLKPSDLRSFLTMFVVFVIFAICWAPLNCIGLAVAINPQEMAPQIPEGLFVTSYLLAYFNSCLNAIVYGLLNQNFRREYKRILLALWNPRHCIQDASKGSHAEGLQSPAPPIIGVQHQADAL
Procedure: as §1, §2

MT1 receptor, sequence (P48039 whole entry): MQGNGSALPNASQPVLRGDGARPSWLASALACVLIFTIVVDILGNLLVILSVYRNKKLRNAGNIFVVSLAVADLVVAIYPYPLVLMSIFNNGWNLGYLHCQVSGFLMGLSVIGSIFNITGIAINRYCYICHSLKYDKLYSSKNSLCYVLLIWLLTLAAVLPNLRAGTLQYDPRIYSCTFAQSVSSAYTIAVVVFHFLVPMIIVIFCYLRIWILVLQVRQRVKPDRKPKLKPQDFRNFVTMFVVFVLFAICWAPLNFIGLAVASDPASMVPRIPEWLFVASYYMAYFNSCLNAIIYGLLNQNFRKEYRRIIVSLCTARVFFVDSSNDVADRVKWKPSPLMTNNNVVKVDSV

Ki [1]: 18 nM | Ki [2]: 1 nM
Structure (SMILES): CNC(=O)c1cc2ccc(OC)cc2n1CCNC(C)=O [Example 1, 1-[2-(Acetylamino)ethyl]-6-methoxy-N-methyl-1H-indole-2-carboxamide]
